Key:
Assay type in all cases: cell-based, Escherichia coli
K-12 (empty pCA24N) = experiment: MIC of strains harboring ASKA plasmids; conditions: 0.1 mM IPTG; for MIC: K-12 empty pCA24N
ΔtolC (empty pCA24N) = experiment: microbe, parasite or virus in culture; conditions: 0.1 mM IPTG; for MIC: ΔtolC empty pCA24N
EKO-35 wcaC (pCA24N) = experiment: MIC of strains harboring ASKA plasmids; conditions: 0.1 mM IPTG; for MIC: EKO-35 wcaC
EKO-35 tufA (pCA24N) = experiment: MIC of strains harboring ASKA plasmids; conditions: 0.1 mM IPTG; for MIC: EKO-35 tufA
[1] = 4 μg/mL chloramphenicol selection

benzalkonium chloride
MIC (K-12 (empty pCA24N); Chlor + (25 μg/mL chloramphenicol)): 25 µg/mL
MIC (K-12 (empty pCA24N); Chlor −): 25 µg/mL
MIC (ΔtolC (empty pCA24N); Chlor +): 0.781 µg/mL
MIC (ΔtolC (empty pCA24N); Chlor −): 1.56 µg/mL
MIC (EKO-35 wcaC (pCA24N); Chlor + (4 μg/mL)): 0.391 µg/mL
MIC (EKO-35 wcaC (pCA24N); Chlor −): 0.781 µg/mL
MIC (EKO-35 tufA (pCA24N); Chlor + (4 μg/mL)): 0.781 µg/mL
MIC (EKO-35 tufA (pCA24N); Chlor −): 0.781 µg/mL

Cn1cc(Br)c(-c2cccc(NC(=O)Nc3ccc(OC(F)(F)F)cc3)c2)n1 [compound 14]
MIC, K-12 (empty pCA24N), Chlor + (K-12 (empty pCA24N); 25 μg/mL chloramphenicol selection): >5 μg/mL
MIC, K-12 (empty pCA24N), Chlor − (K-12 (empty pCA24N); no plasmid selection): >5 μg/mL
MIC, ΔtolC (empty pCA24N), Chlor − (ΔtolC (empty pCA24N); no plasmid selection): 1.25 μg/mL
MIC, ΔtolC (empty pCA24N), Chlor + (ΔtolC (empty pCA24N); with chloramphenicol plasmid selection): 1.25 μg/mL
MIC, EKO-35 wcaC (pCA24N), Chlor + (EKO-35 wcaC (pCA24N); [1]): >5 μg/mL
MIC, EKO-35 wcaC (pCA24N), Chlor − (EKO-35 wcaC (pCA24N); no plasmid selection): >5 μg/mL
MIC, EKO-35 tufA (pCA24N), Chlor + (EKO-35 tufA (pCA24N); [1]): >5 μg/mL
MIC, EKO-35 tufA (pCA24N), Chlor − (EKO-35 tufA (pCA24N); no plasmid selection): >5 μg/mL
